Experimental data as given in patent publication US11851681B2, “Cell preparation method” (KYOTO PREFECTURAL PUBLIC UNIVERSITY CORPORATION, priority 2015, dated 2023).
“Also recorded” adds a separate entry of the source.

Tests used:
[1] = system: human dermal fibroblasts; HDFs; test: Alizarin Red S staining (staining figure), fibroblast to osteoblast, Example 1; format: cell-based; conditions: each compound 2 μM in calcification induction medium; day 24; FIG. 1
Procedure: It was washed 3 times with sterile distilled water. […] The well after staining was washed with sterile distilled water and photographed.
The concentrations of the compounds are as follows: • D4476: 2 μM • ALK5 inhibitor II: 2 μM • SB431542: 2 μM.

[2] = system: human dermal fibroblasts; HDFs; test: Real-time RT-PCR of Osteocalcin and Alkaline Phosphatase, Example 3; format: cell-based; conditions: each compound 2 μM in calcification induction medium; day 24; FIG. 3
Procedure: The concentrations of the compounds are as follows: • D4476: 2 μM • SB431542: 2 μM • ALK5 inhibitor II: 2 μM.

[3] = system: human adipose derived stem cells; ADSC; conditions: calcification induction medium added with ALK5 inhibitor II; day 19; FIG. 5
Procedure: (§1) The calcification induction medium is 10% FBS DMEM added with 50 μg/ml ascorbic acid, 10 mM β-glycerophosphate and 100 nM Dexamethasone. The culture medium was exchanged with a fresh one every 3-4 days, and culturing was performed until day 19.
(§2) On day 19, the culture medium was removed from each well by suction, washed with PBS(−), and fixed with 10% formalin. It was washed 3 times with sterile distilled water. Thereafter, Alizarin Red S staining solution was added, and the mixture was incubated at room temperature for 15 min.

[4] = system: human dermal fibroblasts; HDFs; conditions: calcification induction medium added with ALK5 inhibitor II; day 19; FIG. 5
Procedure: as §1, §2

[5] = system: human dermal fibroblasts; HDFs; test: Real-time RT-PCR of CIDEA, Example 13; format: cell-based; conditions: compound 2 μM in addition to T3 1 nM and Rosiglitazone 1 μM, adipocyte induction medium; day 14; FIG. 13
Procedure: The concentrations of the additives are as follows: • T3: 1 nM • Rosiglitazone: 1 μM • D4476: 2 μM • Pifithrin alpha [p53 inhibitor]: 5 μM • SB431542: 2 μM • ALK5 Inhibitor II: 2 μM.

[6] = system: HDF45, HDF69, HDF22; conditions: 4 μM in calcification induction medium; day 10 (ALP), day 15 (Alizarin Red S); FIG. 37, 38
From the text: (§3) It was washed 3 times with sterile distilled water.
as §3

[7] = system: Human normal skin-derived fibroblasts (HDFs); test: Real-time RT-PCR of ALP, Osteocalcin, Bonesialoprotein, Example 35; format: cell-based; conditions: calcification induction medium added with ALK5 i II 4 μM; day 18; FIG. 39
Procedure: The concentrations of the small molecule compound or cytokine added are as follows. • ALK5 i II: 4 μM • 1α,25-dihydroxy Vitamin D3 (VD3): 5 nM • Human insulin-like growth factor-1 (IGF-1): 100 ng/ml.

[8] = system: Human normal skin-derived fibroblasts (HDFs); test: Real-time RT-PCR of UCP1, four inhibitors, Example 39; format: cell-based
Procedure: The addition concentration of the compound was 4 μM, 8 μM, 12 μM or 16 μM. […] Thereafter, in Day 9-Day 14, culturing was performed in a medium free of ALK5 inhibitor II, LY2157299, SB431542, D4476.

[9] = system: Human normal skin-derived fibroblasts (HDFs); conditions: 4 μM in adipocyte induction medium Day 1 to Day 8; day 14; FIG. 46
Procedure: Human normal skin-derived fibroblasts (HDFs) were suspended in a general medium (DMEM added with 10% FBS). […] The adipocyte induction medium is DMEM added with 1 nM T3, 1 μM Rosiglitazone, 0.5 mM 3-isobutyl-1-methylxanthine (IBMX), 0.5 μM dexamethasone, 1 μg/mL Insulin and 10% FBS. […] On day 14, the culture medium was removed by suction from each well, and washed with PBS(−). […] After washing 3 times with PBS(−), Blocking One was added, and the mixture was incubated at room temperature for 60 min. Anti-UCP-1 antibody (RD MAB6158) was added and the mixture was reacted for 2 hrs at room temperature, and washed 3 times with Wash buffer. CF488-conjugated anti-mouse Ig antibody (Biotum 20014) was added and the mixture was reacted for 2 hrs at room temperature, and washed 3 times with PBS(−). After nuclear staining with SlowFade Gold antifade reagent with DAPI manufactured by Lifetechnology, the cells were photographed with a fluorescence microscope at ×100 magnification.

[10] = system: Human Epidermal Keratinocyte; NHEK (AD); test: Real-time RT-PCR of UCP1 and CIDEA, keratinocyte to brown adipocyte, Example 43; format: cell-based; conditions: K-adipocyte induction medium; ALK5 inhibitor II 4 μM or LY2157299 8 μM, Day 1 to Day 8; day 14; FIG. 47
Procedure: Normal human epidermal keratinocyte (Human Epidermal Keratinocyte; NHEK (AD)) were suspended in a serum-free liquid medium for normal human epidermal keratinocyte proliferation (HuMedia-KG2; manufactured by Kurabo).
The K-adipocyte induction medium is HuMedia-KG2 added with 1 nM T3, 1 μM Rosiglitazone, 0.5 mM 3-isobutyl-1-methylxanthine (IBMX), 0.5 μM dexamethasone, and 1 μg/mL Insulin.
Once every 2 days, the culture medium was exchanged with a fresh one, and culturing was performed from Day 1 to Day 8. Thereafter, from Day 9 to Day 14, the cells were cultured in a medium free of ALK5 inhibitor II or LY2157299. On day 14, the culture medium was removed by suction from each well, washed with PBS(−) and total RNA was extracted from the cells by using RNA easy Mini Kit manufactured by Qiagen. cDNA was synthesized from the RNA by using Rever Tra Ace qPCR RT Master Mix. This cDNA was admixed with Real-time PCR Master Mix, primers specific to UCP-1 gene, CIDEA gene or β actin gene and Taqman probe. qRT-PCR was performed using AB7300 Real-time PCR system. The mRNA level of UCP1 gene and CIDEA gene was quantified as a ratio to β-actin gene mRNA level, and calculated with the value of fibroblast cultured in the general medium as 1.

[11] = system: human dermal fibroblasts; HDFs; conditions: cartilage induction medium added with 2 M ALK5 inhibitor II; day 18; FIG. 9
Procedure: Once every 2 days, the culture medium was exchanged with a fresh one, and culturing was performed until day 18. The cells were washed twice with PBS(−), once with 3% acetic acid solution, an alcian blue staining solution (PH2.5) (Nacalai Tesque) was added and the cells were stained for 1 hr at room temperature. The cells were washed 3 times with PBS(−) and observed under a microscope.

[12] = system: human dermal fibroblasts; HDFs; conditions: 4 μM in calcification induction medium; day 18; FIG. 20
Procedure: The calcification induction medium is a 10% FBS DMEM added with 50 μg/ml ascorbic acid, 10 mM β-glycerophosphate and 100 nM Dexamethasone. The culture medium was exchanged with a fresh one every 3-4 days, and culturing was performed until day 18. On day 18, the culture medium was removed from each well by suction, washed with PBS(−), and fixed with 10% formalin. It was washed 3 times with sterile distilled water. The well after staining with Alizarin Red S was washed with sterile distilled water, and photographed with an inverted microscope at ×40 magnification.

[13] = system: human gingival fibroblasts; GFs; conditions: 4 μM in calcification induction medium; day 18; FIG. 27
Procedure: The calcification induction medium is a 10% FBS DMEM added with 50 μg/ml ascorbic acid, 10 mM β-glycerophosphate and 100 nM Dexamethasone. The culture medium was exchanged with a fresh one every 3-4 days, and culturing was performed until day 18.
On day 18, the culture medium was removed from each well by suction, washed with PBS(−), and fixed with 10% formalin. It was washed 3 times with sterile distilled water. The well after Alizarin Red S staining was washed with sterile distilled water, and photographed with an inverted microscope at ×40 magnification.

[14] = system: human peripheral blood mononuclear cells; PBMCs; conditions: P-adipocyte induction medium, 4 μM; day 14; FIG. 57
Procedure: Human normal peripheral blood mononuclear cells (human peripheral blood mononuclear cells; PBMCs) were suspended in Control medium (RPMI1640 medium added with 10% FBS). […] P-adipocyte induction medium (adipocyte induction medium for peripheral blood mononuclear cell) was added to group 2 at 1 mL/well. P-adipocyte induction medium added with ALK5 inhibitor II at a concentration of 4 μM was added to group 3 at 1 mL/well. The P-adipocyte induction medium is RPMI1640 medium added with 10% FBS, 30 U/ml recombinant hIL-2, 1 nM T3, 1 μM Rosiglitazone, 0.5 mM 3-isobutyl-1-methylxanthine (IBMX), 0.5 μM dexamethasone and 1 μg/mL Insulin. Once every 2 days, 50% of the culture medium was exchanged with a fresh one.
On day 14, the culture medium was removed by suction from each well, washed with PBS(−) and total RNA was extracted from the cells by using RNA easy Mini Kit manufactured by Qiagen. cDNA was synthesized from the RNA by using Rever Tra Ace qPCR RT Master Mix. This cDNA was admixed with Real-time PCR Master Mix, primers specific to FABP4 gene or β actin gene and Taqman probe. qRT-PCR was performed using AB7300 Real-time PCR system. The mRNA level of FABP4 gene was quantified as a ratio to 3-actin gene mRNA level, and calculated with the value of human normal peripheral blood mononuclear cell cultured in the general medium as 1.

[15] = system: human dermal fibroblasts; HDFs; test: Bodipy staining in WA medium (BODIPY positive cells), Example 46; conditions: day 12, FIG. 50

Cc1cccc(-c2n[nH]cc2-c2ccc3ncccc3n2)n1 [ALK5 inhibitor II, 2-(3-(6-Methylpyridin-2-yl)-1H-pyrazol-4-yl)-1,5-naphthyridine]
conversion of human fibroblast to osteoblast, Alizarin Red S staining (staining figure) [1]: converted to osteoblast having calcified is bone matrix production ability; also recorded: most efficiently converts fibroblast to osteoblast | conversion of human fibroblast to osteoblast, Osteocalcin and Alkaline Phosphatase mRNA [2]: converted to osteoblast expressing osteocalcin and alkaline phosphatase gene; also recorded: most efficiently converts fibroblast to osteoblast | conversion to osteoblast, Alizarin Red S staining and OD550, fat-derived mesenchymal stem cell [3]: converted to osteoblast having calcified bone matrix production ability | conversion to osteoblast, Alizarin Red S staining and OD550, human fibroblast [4]: converted to osteoblast having calcified bone matrix production ability | conversion of fibroblast to brown adipocytes, CIDEA mRNA [5]: converted fibroblast to brown adipocytes expressing mRNA of CIDEA gene | conversion of fibroblasts from different individuals to osteoblasts, ALP and Alizarin Red S staining [6]: are converted to osteoblasts | mRNA expression of ALP [7]: significantly increased | mRNA expression of BSP, compared to calcification induction medium [7]: increased | mRNA expression of OC, compared to calcification induction medium [7]: increased | conversion of fibroblast to brown adipocyte, UCP1 mRNA ([8]; 4 μM, 8 μM, 12 μM or 16 μM in adipocyte induction medium Day 1 to Day 8, then compound-free to day 14, FIG. 43): converted fibroblast to brown adipocyte strongly expressing UCP1 gene; also recorded: most strongly induced | efficiency in converting fibroblast to brown adipocyte (summary statement) ([8]; description, conditions not given): highly efficient in converting fibroblast to brown adipocyte | fibroblasts converted to brown adipocyte highly expressing UCP1 protein (UCP1 positive cells in DAPI positive cells) [9]: more than 90% | staining with anti-UCP1 antibody [9]: many cells were strongly stained with anti-UCP1 antibody | conversion of epidermal keratinocyte to brown adipocyte, UCP1 and CIDEA mRNA [10]: converted normal human epidermal keratinocyte to brown adipocyte expressing UCP1 gene and CIDEA gene | conversion of fibroblast to cartilage, alcian blue staining [11]: can convert human normal skin-derived fibroblast to cartilage that produces cartilage matrix stained blue | conversion of fibroblast to osteoblast, Alizarin Red S staining [12]: converted human skin-derived fibroblast to osteoblast that produces a large amount of calcified bone matrix | conversion of gingival-derived fibroblast to osteoblast, Alizarin Red S staining [13]: converted human gingival-derived fibroblast to osteoblast that produces a large amount of calcified bone matrix | conversion of peripheral blood mononuclear cell to white adipocyte, FABP4 mRNA [14]: converts human normal peripheral blood mononuclear cell to white adipocyte expressing FABP4 gene | BODIPY positive cells / conversion to white adipocyte, co-addition with Rosiglitazone ([15]; WA medium co-added with 8 μM or 16 μM ALK5 inhibitor II and 1 μM Rosiglitazone): more cells were stained; also recorded: more strongly induced conversion of fibroblast to white adipocyte | BODIPY positive cells / conversion to white adipocyte, single addition ([15]; WA medium, 1 μM Rosiglitazone or 16 μM ALK5 inhibitor II): contained stained cells at low frequency; also recorded: converted human fibroblast to white adipocyte
